Measured values from patent US20180296523A1, “USE OF POLYMETHOXYLATED FLAVONES TO AMELIORATE CIRCADIAN RHYTHM DISORDERS” (THE BOARD OF REGENTS OF THE UNIVERSITY OF TEXAS SY, priority 2017, published 2018).
“Also recorded” adds a separate entry of the source.

Key:
[1] = test system: PER2::LucSV reporter fibroblast cells; experiment: Dose response validation of reporter rhythm in PER2::LucSV cells; type: cell-based, mouse
Protocol: The chemical screen for circadian clock modulators was conducted at the Chemical Genomics Core facility at the UTHSC-H. The in-house chemical library screened consists of compounds from NIH Clinical Collection, NCI collection and Microsource Spectrum Collection. The screening was conducted largely based on the protocol previously described (Chen et al., 2012). […] Cells were then incubated with 5 μM forskolin for 1-2 h followed by the addition of chemical compounds to the plates with robotic arms (Beckman), and then subjected to continuous monitoring over several days in a temperature-controlled EnVision microplate reader (Perkin Elmer). Data analysis was carried out by using the MultiCycle software (Actimetrics) for measurement of period, phase, and amplitude. […] Tissue explant experiments were conducted as described previously (Chen et al., 2012).

RORγ-LBD = biological target: T1, RORγ-LBD (Homo sapiens, UniProt P51449); experiment: Radioligand receptor binding assay with 25-[3H]-OHC, RORγ-LBD; conditions: in the presence of 4.5 nM 25-[3H]-OHC
T1 sequence (P51449 269-508 limits assumed): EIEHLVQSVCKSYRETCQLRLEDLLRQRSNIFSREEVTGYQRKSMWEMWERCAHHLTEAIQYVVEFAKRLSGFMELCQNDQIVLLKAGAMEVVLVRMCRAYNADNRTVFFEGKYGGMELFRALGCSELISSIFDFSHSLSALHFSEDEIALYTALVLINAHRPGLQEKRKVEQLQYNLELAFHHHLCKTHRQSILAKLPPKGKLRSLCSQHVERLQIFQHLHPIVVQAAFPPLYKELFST
Protocol: Ligand binding was determined by filter binding assays to calculate the Kd value. […] Ki was determined using the Cheng-Prusoff equation.

GAL4 DBD-RORα LBD = biological target: T2, GAL4 DBD-RORα LBD (Mus musculus, UniProt P51448); experiment: Mammalian one-hybrid reporter assay in HEK293T cells, GAL4-RORα; type: cell-based; conditions: ligand interaction reduces transcriptional activity
T2 construct: mouse RORα-LBD (aa 261-523); expressed in transfected cells; host or cells: HEK293T
T2 sequence (P51448 261-523): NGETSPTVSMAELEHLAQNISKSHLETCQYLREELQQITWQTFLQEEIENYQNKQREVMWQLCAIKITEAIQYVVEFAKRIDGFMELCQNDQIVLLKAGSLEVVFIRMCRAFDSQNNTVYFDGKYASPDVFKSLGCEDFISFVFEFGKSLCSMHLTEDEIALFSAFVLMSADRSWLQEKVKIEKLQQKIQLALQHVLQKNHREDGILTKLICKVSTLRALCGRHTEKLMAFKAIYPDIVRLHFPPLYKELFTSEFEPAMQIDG
Excerpt: (§1) Plasmids containing the retinoic acid-related orphan receptor response element (RORE) from mouse Bmal1 promoter, pcDNA3.1B-G4DBD-RORαLBD and pcDNA3.1BG4DBD-RORγLBD were constructed in our lab. Specifically, the 1960 bp sequences (−1830/+130) of the mouse Bmal1 promoter harboring either WT ([…] (SEQ ID NO:1) and […] (SEQ ID NO:2)) or mutant ([…] (SEQ ID NO:3)) RORE were PCR amplified from mouse genomic DNA and cloned into pGL3-promoter luciferase vector. For expression of RORα or RORγ-GAL4 protein, mouse RORα-LBD (aa 261-523) or RORγ-LBD (aa 250-516) were PCR amplified from mouse genomic DNA and cloned into a GAL4-DBD-containing vector, pcDNA3.1B.
(§2) For mammalian one-hybrid assays, HEK293T cells were cotransfected with pcDNA3.1B-G4DBD-RORα/γLBD, pGL4.31 and TK promoter Renilla luciferase construct (tK.pRL). To investigate the regulation of the Bmal1 reporter, Hepa1-6 cells were cotransfected with Bmal1-WT or mutant RORE reporter plasmids, RORα, RORγ or Rev-erbα expression construct along with tK.pRL. Mouse and human siRNA targeting RORα and RORγ were purchased from Santa Cruz. Transfection was performed by Lipfectamine 2000 reagent (Invitrogen) Twenty-four hours after transfection, the cells were treated with vehicle or NOB. Lysates were collected 24 h after treatment, and firefly and Renilla luciferase activities were measured by using a Dual-Luciferase Reporter System (Promega).
(§3) For radio-ligand receptor binding assays, previously described protocols with minor modifications (Kumar et al., 2010; Wang et al., 2010b) were adopted.

GAL4 DBD-RORγ LBD = biological target: T3, GAL4 DBD-RORγ LBD (Mus musculus, UniProt P51450); experiment: Mammalian one-hybrid reporter assay in HEK293T cells, GAL4-RORγ; type: cell-based; conditions: ligand interaction reduces transcriptional activity
T3 construct: RORγ-LBD (aa 250-516); expressed in transfected cells; host or cells: HEK293T
T3 sequence (P51450 250-516): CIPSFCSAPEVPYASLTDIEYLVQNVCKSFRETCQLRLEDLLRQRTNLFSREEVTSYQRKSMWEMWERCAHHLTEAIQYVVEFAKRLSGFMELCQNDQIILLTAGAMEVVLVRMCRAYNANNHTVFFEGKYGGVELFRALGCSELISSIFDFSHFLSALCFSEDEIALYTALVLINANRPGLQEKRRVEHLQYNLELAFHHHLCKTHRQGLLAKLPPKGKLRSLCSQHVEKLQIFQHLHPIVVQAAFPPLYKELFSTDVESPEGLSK
Excerpt: as §1, §2, §3

[2] = test system: WT and Clock^Δ19/Δ19 mice; experiment: Circadian locomotor (wheel-running) activity; type: in vivo, mouse
Excerpt: RC-fed WT, HFD-fed WT and Clock^[…]/[…] mice with NOB or Vehicle treatment were used for circadian locomotor activity experiments. Briefly, mice were first maintained for at least 2 weeks in a 12 hr:12 hr light:dark (LD) cycle, then released into the constant darkness, free-running condition. The mice were then maintained in constant darkness for another 2 weeks. Wheel-running data was downloaded as VitalView data files and analyzed with the […] and Actogram J program (Schmid et al., 2011; Zheng et al., 1999).

[3] = test system: Bmal1 promoter with RORα/γ knockdown; experiment: Bmal1 promoter-driven luciferase reporter in U2OS cells; type: cell-based
[4] = other studies (Kumar et al., 2012; Singh et al., 2011); cited from earlier work

SMILES | reporter luminescence ([1]; PER2::LucSV reporter cells) | competitive binding to RORγ-LBD (RORγ-LBD) | activity on GAL4-RORα chimeric receptor (GAL4 DBD-RORα LBD) | activity on GAL4-RORγ chimeric receptor (GAL4 DBD-RORγ LBD) | amplitude of PER2::LucSV reporter rhythm [1] | period of PER2::LucSV reporter rhythm [1] | EC50 ([1]; Mus musculus, Fibroblast, PER2::LucSV reporter rhythm, read-out: estimated half maximal effective concentration) [µM] | wheel-running activity levels ([2]; HFD-fed Clock^Δ19/Δ19 mice) | wheel-running activity levels ([2]; HFD-fed WT mice, vs control treatment) | wheel-running activity and periodicity ([2]; RC-fed WT C57/6J mice) | induction of Bmal1 reporter after knockdown of RORα/γ by siRNAs [3] | NOB levels 24 hr after administration [4]
C[C@@H]1O[C@@H](O[C@H]2[C@H](Oc3cc(O)c4c(c3)O[C@H](c3ccc(O)cc3)CC4=O)O[C@H](CO)[C@@H](O)[C@@H]2O)[C@H](O)[C@H](O)[C@H]1O [naringin, reference compound] | did not enhance the reporter luminescence | markedly diminished binding | no activities | no activities |  |  |  |  |  |  |  | 
COc1ccc(-c2cc(=O)c3c(OC)c(OC)c(OC)c(OC)c3o2)cc1OC [nobiletin] |  | direct binding; also recorded: robust competitive binding | robust activities | robust activities | robustly enhanced the amplitude | lengthened the period in a dose-dependent manner | < 5 | no significant difference in activity levels | greatly increased wheel-running activity levels | normal wheel-running activity and periodicity | abrogated the nobiletin-mediated induction | able to measure NOB levels 24 hr after administration
